Reference: publication PMC7582876, “Antiproliferative Properties of a Few Auranofin-Related Gold(I) and Silver(I) Complexes in Leukemia Cells and their Interferences with the Ubiquitin Proteasome System” (Molecules, 2020)

How the values were obtained:
[1] = molecular target: T1, chymotrypsin-like (ChT-L) activity of human 20S proteasome (Homo sapiens, UniProt P28074); assay: Inhibition of chymotrypsin-like activity of 20S proteasome (Suc-Leu-Leu-Val-Tyr-AMC); assay type: biochemical; conditions: for ChT-L inhibition at 10 µM: over 10 min; for IC50: 10 min, no pre-incubation, 30 °C
T1 construct: 20S proteasome, isolated and purified from human erythrocytes; purchased Biomol GmbH, Hamburg, Germany; host or cells: human erythrocytes (native complex)
Experimental: (§1) 20S proteasome, isolated and purified from human erythrocytes, was obtained from a commercial source (Biomol GmbH, Hamburg, Germany), as well as the peptidic substrates (Bachem, Bubendorf, Switzerland) Suc-Leu-Leu-Val-Tyr-AMC, Boc-Leu-Arg-Arg-AMC and Cbz-Leu-Leu-Glu-AMC for ChT-L, T-L and PGPH (C-L) activity of the enzyme, respectively. The three distinct proteolytic activities of the 20S proteasome were measured by monitoring the hydrolysis of the substrates and detecting the fluorescence of the common product released, i.e., 7-amino-4-methyl coumarin (7-AMC), by means of an Infinite 200 PRO microplate reader (Tecan, Männedorf, Switzerland) at 30 °C with a 380-nm excitation filter and a 460-nm emission filter. All gold and silver complexes were tested against the three proteolytic activities of the 20S proteasome and against Cat-B, Cat-L and bovine pancreatic α-chymotrypsin at 10 µM concentrations over a period of 10 min using an equivalent amount of DMSO as a negative control. […] The IC50 values were calculated with the program GraFit® using the two-parameter equation. More detailed experimental protocols for the assays against each proteolytic activity of the 20S proteasome, as well as against bovine pancreatic α-chymotrypsin, are already reported elsewhere (see also Supplementary Materials). Cat-B and Cat-L were purchased from Calbiochem, Darmstadt, Germany, and the related assays were performed as previously described. The employed fluorogenic substrate for both cysteine proteases was Cbz-Phe-Arg-AMC (80 µM for Cat-B; 5 µM for Cat-L). […]
Inhibition assay for the Chymotryptic Activity of the 20S Proteasome
Human 20S proteasome was incubated at 30 °C at a final concentration of 0.004 mg∙mL−1
with test compound present at 10 µM (screening assay) or at variable concentrations
(continuous assay). The reaction buffer consisted of 50 mM Tris pH 7.5, 10 mM NaCl, 25
mM KCl, 1 mM MgCl2, 0.03% SDS and 5% DMSO. Product release from substrate
hydrolysis ([…]) was monitored continuously over a period of 10 min. […]

[2] = molecular target: T2, trypsin-like (T-L) activity of human 20S proteasome (Homo sapiens, UniProt Q99436); assay: Inhibition of trypsin-like activity of 20S proteasome (Boc-Leu-Arg-Arg-AMC); assay type: biochemical; conditions: for IC50: 10 min, no pre-incubation, 30 °C; for T-L inhibition at 10 µM: over 10 min
T2 construct: 20S proteasome, isolated and purified from human erythrocytes; purchased Biomol GmbH, Hamburg, Germany; host or cells: human erythrocytes (native complex)
Experimental: as §1
Inhibition assay for the Tryptic Activity of the 20S Proteasome
mg∙mL−1 with the test compound present at 10 µM (screening assay) or at variable
concentrations (continuous assay). The reaction buffer consisted of 50 mM Tris buffer pH
substrate hydrolysis ([…]) was monitored continuously over a period of 10 min. […]

[3] = test system: human fibroblast cells (HDF); parameters: method as in PMID 29057040; conditions: previously assessed, ref [18], read-out: IC50, cell viability of healthy cells (HDF); cited from earlier work
[4] = test system: human embryonic kidney cells (HEK293); parameters: method as in PMID 29057040; conditions: previously assessed, ref [18], read-out: IC50, cell viability of healthy cells (HEK293); cited from earlier work

Row | Compound | ChT-L inhibition at 10 µM [1] | IC50 [2] [µM] | IC50 [1] [µM] | IC50 [3] [µM] | IC50 [4] [µM] | T-L inhibition at 10 µM [2]
1 | CC[PH](CC)(CC)[Ag][Br] [Ag(PEt3)Br] | 22 ± 0.4% | 2.65 ± 0.15 |  |  |  | 
2 | CC[PH](CC)(CC)[Ag][Cl] [Ag(PEt3)Cl] | 28 ± 0.5% | 2.2 ± 1.3 |  |  |  | 
3 | CC[PH](CC)(CC)[Ag][I] [Ag(PEt3)I] | 25 ± 0.2% | 2.27 ± 0.78 |  |  |  | 
4 | CCP(CC)CC.[Br][Au] [Au(PEt3)Br] |  | 1.26 ± 0.12 | 1.4 ± 0.8 |  |  | 
5 | CCP(CC)CC.[Au+].[Cl-] [Au(PEt3)Cl] |  | 1.25 ± 0.05 | 2.6 ± 0.3 | > 5 | > 5 | 
6 | CC[P](CC)(CC)[Au][I] [Au(PEt3)I] |  | 5.8 ± 0.3 | 6.1 ± 0.4 | > 5 | > 5 | 
7 | CCP(CC)CC.CCP(CC)CC.O=[N+]([O-])[O-].[Ag+] [[Ag(PEt3)2]NO3] | 38 ± 5.0% |  |  |  |  | n.i.
8 | CC(=O)OC[C@H]1O[C@@H]([S-])[C@H](OC(C)=O)[C@@H](OC(C)=O)[C@@H]1OC(C)=O.CCP(CC)CC.[Au+] [auranofin, Auranofin] | n.i. ^a |  |  | > 5 | > 5 | n.i.
